Laboratory results taken from ChEMBL document CHEMBL1811861 (Bioorg Med Chem, 2011).

Key:
[1] = system: Human immunodeficiency virus 1; assay: microbe, parasite or virus in culture; details: Human immunodeficiency virus 1, LAI, MT2
Human alphaherpesvirus 3 [2] = assay: microbe, parasite or virus in culture; details: Human alphaherpesvirus 3, 07/1, HEL
Human alphaherpesvirus 3 [3] = assay: microbe, parasite or virus in culture; details: Human alphaherpesvirus 3, strain Oka vaccine, HEL
Feline coronavirus = assay: microbe, parasite or virus in culture; details: Alphacoronavirus 1, CRFK
Felid alphaherpesvirus 1 = assay: microbe, parasite or virus in culture; details: Felid alphaherpesvirus 1, CRFK
[4] = cat, crfk, 72 h
[5] = system: Mammalian orthoreovirus 1; assay: microbe, parasite or virus in culture; details: Mammalian orthoreovirus 1, Vero
Coxsackievirus B4 [6] = assay: microbe, parasite or virus in culture; details: Enterovirus B, Vero
Sindbis virus = assay: microbe, parasite or virus in culture; details: Vero
Human respirovirus 3 = assay: microbe, parasite or virus in culture; details: Human respirovirus 3, Vero
Human betaherpesvirus 5 [7] = assay: microbe, parasite or virus in culture; details: Human betaherpesvirus 5, Davis, HEL
Punta Toro virus = assay: microbe, parasite or virus in culture; details: Vero
Human betaherpesvirus 5 [8] = assay: microbe, parasite or virus in culture; details: Human betaherpesvirus 5, AD169, HEL
[9] = system: Respiratory syncytial virus; assay: microbe, parasite or virus in culture; details: human respiratory syncytial virus, HeLa
Influenza A virus [10] = assay: microbe, parasite or virus in culture; details: H3N2, MDCK
Influenza A virus [11] = assay: microbe, parasite or virus in culture; details: H1N1, MDCK
[12] = system: Human immunodeficiency virus 1; assay: microbe, parasite or virus in culture; details: Human immunodeficiency virus 1, 3B, CCRF-CEM, 96 h
Human alphaherpesvirus 2 = assay: microbe, parasite or virus in culture; details: Human alphaherpesvirus 2, strain G, HEL
Influenza B virus = assay: microbe, parasite or virus in culture; details: MDCK
Human alphaherpesvirus 1 [13] = assay: microbe, parasite or virus in culture; details: Human alphaherpesvirus 1, KOS, HEL
[14] = system: Human immunodeficiency virus 2; assay: microbe, parasite or virus in culture; details: Human immunodeficiency virus 2, ISOLATE ROD, CCRF-CEM, 96 h
[15] = system: Vesicular stomatitis virus; assay: microbe, parasite or virus in culture; details: HeLa
Coxsackievirus B4 [16] = assay: microbe, parasite or virus in culture; details: Enterovirus B, HeLa
HEL = details: human, 72 h
Human alphaherpesvirus 1 [17] = assay: microbe, parasite or virus in culture; details: Human alphaherpesvirus 1, KOS, HEL; remark: listed apart in the source
HeLa = details: human, 72 h
[18] = system: Vesicular stomatitis virus; assay: microbe, parasite or virus in culture; details: HEL
Vaccinia virus = assay: microbe, parasite or virus in culture; details: Orthopoxvirus vaccinia, HEL
CCRF-CEM = details: human, 72 h
Human betaherpesvirus 5 [19] = assay: microbe, parasite or virus in culture; details: Human betaherpesvirus 5, AD169, HFF
in vitro = details: human, HeLa cells

## CCCCCCCCCCCCCCCCOCCCOP(=O)(O)COCCn1cnc2c(N)ncnc21
[1]
  EC50: 0.015 nM

## Nc1ncnc2c1ncn2CCOCP(=O)(O)OCCCCCCCCCCO
Human alphaherpesvirus 3 [2]
  EC50: 64.3 µM
Human alphaherpesvirus 3 [3]
  EC50: 114 µM

## Nc1ncnc2c1ncn2CCOCP(=O)(O)OCCCCCCCCC(O)CO (centres undefined)
Feline coronavirus
  EC50: > 9 µM
Felid alphaherpesvirus 1
  EC50: > 9 µM
[4]
  CC50: 9.4 µM

## Nc1ncnc2c1ncn2CCOCP(=O)(OCCCCCCCCCCO)OCCCCCCCCCCO
Human alphaherpesvirus 3 [2]
  EC50: > 34 µM
[5]
  EC50: > 34 µM
Coxsackievirus B4 [6]
  EC50: > 34 µM
Human alphaherpesvirus 3 [3]
  EC50: > 34 µM
Sindbis virus
  EC50: > 34 µM
Human respirovirus 3
  EC50: > 34 µM
Human betaherpesvirus 5 [7]
  EC50: > 34 µM
Punta Toro virus
  EC50: > 34 µM
Human betaherpesvirus 5 [8]
  EC50: > 34 µM
[9]
  EC50: 99 µM

## Nc1ncnc2c1ncn2CCOCP(=O)(OCCCCCCCCC(O)CO)OCCCCCCCCC(O)CO (centres undefined)
Human alphaherpesvirus 3 [2]
  EC50: 60.7 µM
Influenza A virus [10]
  EC50: > 324 µM
Human alphaherpesvirus 3 [3]
  EC50: 99 µM

## Nc1ncnc2c1ncn2CCOCP(=O)(O)OCCOCCCCCCCCCCO
Influenza A virus [11]
  EC50: > 42 µM
Human alphaherpesvirus 3 [2]
  EC50: 18.4 µM
[12]
  EC50: 106 µM
Influenza A virus [10]
  EC50: > 42 µM
Human alphaherpesvirus 3 [3]
  EC50: 26 µM
Human alphaherpesvirus 2
  EC50: 122 µM
Influenza B virus
  EC50: > 42 µM
Human alphaherpesvirus 1 [13]
  EC50: 122 µM
[14]
  EC50: 95 µM

## Nc1ncnc2c1ncn2CCOCP(=O)(O)OCCOCCCCCCCCC(O)CO (centres undefined)
Human alphaherpesvirus 3 [2]
  EC50: ≥ 72.7 µM
Human alphaherpesvirus 3 [3]
  EC50: 61.4 µM

## Nc1ncnc2c1ncn2CCOCP(=O)(OCCOCCCCCCCCCCO)OCCOCCCCCCCCCCO
[15]
  EC50: > 29.7 µM
Influenza A virus [11]
  EC50: > 5.9 µM
Coxsackievirus B4 [16]
  EC50: > 29.7 µM
Human alphaherpesvirus 3 [2]
  EC50: > 29.7 µM
[12]
  EC50: > 29.7 µM
[5]
  EC50: > 29.7 µM
Influenza A virus [10]
  EC50: > 5.9 µM
HEL
  CC50: 62.5 µM
Human alphaherpesvirus 1 [17]
  EC50: > 29.7 µM
HeLa
  CC50: 148 µM
Coxsackievirus B4 [6]
  EC50: > 29.7 µM
Human alphaherpesvirus 3 [3]
  EC50: > 29.7 µM
[18]
  EC50: > 29.7 µM
Human alphaherpesvirus 2
  EC50: > 29.7 µM
Sindbis virus
  EC50: > 29.7 µM
Vaccinia virus
  EC50: > 29.7 µM
Human respirovirus 3
  EC50: > 29.7 µM
Influenza B virus
  EC50: > 5.9 µM
CCRF-CEM
  CC50: 13.5 µM
Human betaherpesvirus 5 [7]
  EC50: > 29.7 µM
Human alphaherpesvirus 1 [13]
  EC50: > 29.7 µM
Feline coronavirus
  EC50: > 29.7 µM
Punta Toro virus
  EC50: > 29.7 µM
[14]
  EC50: > 29.7 µM
Felid alphaherpesvirus 1
  EC50: > 29.7 µM
[4]
  CC50: > 148 µM
Human betaherpesvirus 5 [8]
  EC50: > 29.7 µM
[9]
  EC50: > 29.7 µM

## Nc1ncnc2c1ncn2CCOCP(=O)(OCCOCCCCCCCCC(O)CO)OCCOCCCCCCCCC(O)CO (centres undefined)
Human betaherpesvirus 5 [8]
  EC50: > 28.3 µM

## Nc1ncnc2c1ncn2CCOCP(=O)(O)OCCOCCOCCOCCOCCOCCO
Human alphaherpesvirus 3 [2]
  EC50: 40.9 µM

## CCOCCOCCOCCOCCOCCOCCOP(=O)(O)COCCn1cnc2c(N)ncnc21
Human alphaherpesvirus 3 [2]
  EC50: 69 µM
HEL
  CC50: 146 µM
Human alphaherpesvirus 3 [3]
  EC50: 74.3 µM

## Cc1oc(=O)oc1COP(=O)(O)COCCn1cnc2c(N)ncnc21
Human alphaherpesvirus 3 [2]
  EC50: 7.6 µM
[12]
  EC50: 10.6 µM
HEL
  CC50: 117 µM
Human alphaherpesvirus 1 [17]
  EC50: 51.9 µM
Human alphaherpesvirus 3 [3]
  EC50: 1.92 µM
Human alphaherpesvirus 2
  EC50: 98.6 µM
CCRF-CEM
  CC50: 88 µM
Human alphaherpesvirus 1 [13]
  EC50: 51.9 µM
[14]
  EC50: 9.3 µM

## Nc1ccn(C[C@@H](CO)OCP(=O)(O)OCCOCCOCCOCCOCCOCCO)c(=O)n1
Human alphaherpesvirus 3 [2]
  EC50: 0.6 µM
Human alphaherpesvirus 1 [17]
  EC50: 16.5 µM
Human alphaherpesvirus 3 [3]
  EC50: 1.91 µM
Human alphaherpesvirus 2
  EC50: 7.4 µM
Vaccinia virus
  EC50: 107 µM
Human betaherpesvirus 5 [7]
  EC50: 0.7 µM
Human alphaherpesvirus 1 [13]
  EC50: 12.9 µM
Felid alphaherpesvirus 1
  EC50: 14.5 µM
Human betaherpesvirus 5 [8]
  EC50: 0.8 µM

## CCOCCOCCOCCOCCOCCOCCOP(=O)(O)CO[C@H](CO)Cn1ccc(N)nc1=O
Human alphaherpesvirus 2
  EC50: 1.4 µM
Vaccinia virus
  EC50: 15.7 µM
Human alphaherpesvirus 1 [13]
  EC50: 3.5 µM
Felid alphaherpesvirus 1
  EC50: 2.8 µM
Human betaherpesvirus 5 [8]
  EC50: 0.95 µM

## CCCCCCCCCCCCCCOCCCOP(=O)(O)CO[C@H](CO)Cn1ccc(N)nc1=O
Human betaherpesvirus 5 [19]
  EC50: 0.002 µM

## Nc1nc2c(ncn2COCCO)c(=O)[nH]1 [ACYCLOVIR]
Human alphaherpesvirus 3 [2]
  EC50: 69.3 µM
HEL
  CC50: ≥ 1420 µM

## Nc1ncnc2c1ncn2CCOCP(=O)(O)O [ADEFOVIR]
[1]
  EC50: 1100 nM
Human alphaherpesvirus 3 [2]
  EC50: 5 µM
[12]
  EC50: 10.4 µM
Human alphaherpesvirus 1 [17]
  EC50: 42.5 µM
HeLa
  CC50: > 250 µM
Human alphaherpesvirus 3 [3]
  EC50: 6.7 µM
Human alphaherpesvirus 2
  EC50: 24.9 µM
CCRF-CEM
  CC50: 164 µM
Human betaherpesvirus 5 [7]
  EC50: 115 µM
Human alphaherpesvirus 1 [13]
  EC50: 41.4 µM
[14]
  EC50: 8.6 µM
Human betaherpesvirus 5 [8]
  EC50: 118 µM

## CCCCCCCCCCCCCCCCOCCCOP(=O)(O)CO[C@H](CO)Cn1ccc(N)nc1=O [BRINCIDOFOVIR]
Human betaherpesvirus 5 [19]
  EC50: 0.0009 µM

## O=c1[nH]c(=O)n([C@H]2C[C@H](O)[C@@H](CO)O2)cc1/C=C/Br [BRIVUDINE]
Human alphaherpesvirus 3 [2]
  EC50: ≥ 105 µM
HEL
  CC50: 470 µM
Human alphaherpesvirus 3 [3]
  EC50: 0.013 µM
Human alphaherpesvirus 2
  EC50: 45.7 µM
Human alphaherpesvirus 1 [13]
  EC50: 274 µM

## Nc1ccn(C[C@@H](CO)OCP(=O)(O)O)c(=O)n1 [CIDOFOVIR]
Human alphaherpesvirus 3 [2]
  EC50: 0.1 µM
HEL
  CC50: 234 µM
Human alphaherpesvirus 1 [17]
  EC50: 1.6 µM
Human betaherpesvirus 5 [19]
  EC50: 1.2 µM
Human alphaherpesvirus 3 [3]
  EC50: 0.29 µM
Human alphaherpesvirus 2
  EC50: 1.43 µM
Vaccinia virus
  EC50: 7 µM
Human betaherpesvirus 5 [7]
  EC50: 0.94 µM
Human betaherpesvirus 5 [8]
  EC50: 0.92 µM

## Nc1nc(O)c2ncn(COC(CO)CO)c2n1 [GANCICLOVIR]
HEL
  CC50: 435 µM
Human alphaherpesvirus 2
  EC50: 0.027 µM
Vaccinia virus
  EC50: > 250 µM
Felid alphaherpesvirus 1
  EC50: 8.1 µM
[4]
  CC50: > 394 µM

## CCOC(=O)C1=C[C@@H](OC(CC)CC)[C@H](NC(C)=O)[C@@H](N)C1 [OSELTAMIVIR]
Influenza A virus [11]
  EC50: 12 µM
Influenza B virus
  EC50: 23.5 µM

## NC(=O)c1ncn([C@@H]2O[C@H](CO)[C@@H](O)[C@H]2O)n1 [RIBAVIRIN]
Influenza A virus [11]
  EC50: 9.8 µM
[5]
  EC50: ≥ 174 µM
In vitro
  CC50 at 72 h: > 250 µM
Coxsackievirus B4 [6]
  EC50: > 250 µM
Sindbis virus
  EC50: > 250 µM
[9]
  EC50: 3 µM
